Experimental data taken from patent US20080039430A1, “Pharmaceutical Compositions For The Treatment Of Leishmaniasis” (priority 2004, published 2008).

What was measured:
[1] = system: L. infantum promastigotes; assay: Growth of promastigotes in axenic culture, viable parasites by FACs analysis; assay type: cell-based
Procedure: (§1) The growth of Leishmania amastigotes and promastigotes was followed in axenic culture conditions in the presence or absence of NAm.
(§2) A cloned line of L. infantum (MHOM/MA/67/ITMAP-263) was used in all experiments. Each subculture was initiated at 5×10^5 parasites/ml of medium. Axenically grown amastigote forms of L. infantum were maintained at 37° C. with 5% CO2 by weekly subpassages in a cell-free medium called MAA/20 (medium for axenically grown amastigotes) in 25-ml flasks, as previously described (10). Promastigote forms were maintained at 26° C. by weekly subpassage in SDM 79 medium supplemented with 10% foetal calf serum (FCS) and 100 units/ml penicillin and 100 μg/ml streptomycin. Nicotinamide (SIGMA, St Louis) was added at the appropriate concentration and the mean number of viable parasites determined using FACs analysis, as previously described (11).

[2] = system: L. infantum axenic amastigotes; assay: Growth of axenically grown amastigotes, viable parasites by FACs analysis; assay type: cell-based
Procedure: as §1, §2

[3] = system: L. amazonsensis amastigotes; assay: Growth inhibition of L. amazonsensis amastigotes; assay type: cell-based
axenic amastigote = assay: YOPRO-1 positive (apoptotic) axenic amastigotes; assay type: cell-based, L. infantum
Procedure: After 24, 48 and 72 hours of incubation aliquots (10^6 parasites) were collected, washed and incubated for 10 min with 10 μM of YO[…], an apoptotic cell marker (Molecular probes). The mean percentage of YO[…] positive cells was determined as previously described (9).

THP-1 monocytes = assay: Growth and viability of THP-1 monocytes; assay type: cell-based; details: 3 days
Procedure: In a first series of experiments, THP-1 monocytes were incubated during 3 days with various concentrations of NAm and the growth and viability of cells were recorded. Up to 10 mM of NAm, no effect on cell growth and viability was observed. In contrast, 20 mM NAm inhibited the proliferation of THP-1 monocyte by about 45% in agreement with the values recorded for other cell types: SupT1 and PBLs cells (6).

intracellular amastigote = assay: Intracellular amastigote proliferation in THP-1 differentiated macrophages, parasitic index; assay type: cell-based, Leishmania infantum; details: for IC50: Leishmania infantum, THP-1, read-out: IC50, intracellular growth of Leishmania infantum
Procedure: Thus, THP-1 differentiated macrophages were infected with stationary phase amastigotes at a host cell-parasite ratio of 5:1. After 4 hours, non adherent parasites were removed and nicotinamide was added to the medium at the appropriate concentration. After 3 days of incubation time, cells were fixed with methanol and stained with giemsa. Parasitic index PI (mean percentage of infected macrophages X number of amastigotes per macrophage) was determined. […] At this concentration a reduction of almost 70% of PI was observed.

SIRT1 = molecular target: T1, SIRT1 (Homo sapiens, UniProt Q96EB6); assay: NAD-dependent deacetylase activity, cyclex SIR2 assay kit with SIRT1; assay type: biochemical
T1 construct: purchased MBL, Japan
T1 sequence (Q96EB6 1-747): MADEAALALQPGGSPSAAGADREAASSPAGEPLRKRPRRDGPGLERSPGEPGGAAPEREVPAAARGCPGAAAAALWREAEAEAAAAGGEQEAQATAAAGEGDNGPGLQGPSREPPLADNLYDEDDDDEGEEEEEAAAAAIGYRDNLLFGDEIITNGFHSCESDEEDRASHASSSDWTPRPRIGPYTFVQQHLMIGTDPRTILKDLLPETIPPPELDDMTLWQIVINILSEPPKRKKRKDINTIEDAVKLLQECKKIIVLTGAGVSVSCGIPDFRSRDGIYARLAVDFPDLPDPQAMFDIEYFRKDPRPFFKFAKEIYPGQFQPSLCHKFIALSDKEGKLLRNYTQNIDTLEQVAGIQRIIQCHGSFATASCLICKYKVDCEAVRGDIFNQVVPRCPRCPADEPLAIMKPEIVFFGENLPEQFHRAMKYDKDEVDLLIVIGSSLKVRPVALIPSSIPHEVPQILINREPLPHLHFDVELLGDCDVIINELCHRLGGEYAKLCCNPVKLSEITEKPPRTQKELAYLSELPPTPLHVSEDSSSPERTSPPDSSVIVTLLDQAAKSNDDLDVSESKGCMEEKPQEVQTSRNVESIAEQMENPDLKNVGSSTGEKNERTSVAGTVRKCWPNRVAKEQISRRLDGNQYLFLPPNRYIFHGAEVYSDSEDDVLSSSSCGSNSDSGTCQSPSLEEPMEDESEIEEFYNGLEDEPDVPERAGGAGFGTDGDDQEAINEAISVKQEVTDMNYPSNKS
Procedure: Therefore, complementary experiments were conducted in order to examine whether NAm could interfere with Leishmania deacetylase activity in vitro. To test this possibility, a commercially available “[…] SIR2 assay kit” and SIRT1 as a standard enzyme (MBL, Japan) were used.

LmSIR2 = molecular target: T2, LmSIR2 (Leishmania major, UniProt Q25337); assay: NAD-dependent deacetylase activity in Leishmania extracts (pTEX-LmSIR2); assay type: biochemical; details: 5 mM NAm, 200 μM NAD
T2 construct: expressed in transfected cells; host or cells: Leishmania infantum (MHOM/MA/67/ITMAP-263) carrying pTEX-LmSIR2; NP40 lysate
T2 sequence (Q25337 whole entry): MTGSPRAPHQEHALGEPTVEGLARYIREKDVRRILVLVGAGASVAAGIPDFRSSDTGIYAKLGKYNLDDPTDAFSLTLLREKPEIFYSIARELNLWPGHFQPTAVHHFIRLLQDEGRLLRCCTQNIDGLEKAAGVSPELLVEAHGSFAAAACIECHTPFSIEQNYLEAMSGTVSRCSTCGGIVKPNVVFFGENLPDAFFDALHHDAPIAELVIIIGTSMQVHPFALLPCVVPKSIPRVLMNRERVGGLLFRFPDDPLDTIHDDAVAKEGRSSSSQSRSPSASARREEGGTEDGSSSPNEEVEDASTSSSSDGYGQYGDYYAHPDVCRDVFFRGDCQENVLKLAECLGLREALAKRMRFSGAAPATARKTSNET
Procedure: Having established a standard inhibitory assay, the effect of NAm was then examined on the NAD-dependent deacetylase activity contained in Leishmania extracts from mutant parasites carrying extra copies of LmSIR2 gene (pTEX-LmSIR2) or empty plasmid DNA (pTEX) (11).
Briefly, 2 10^5 parasites were collected and washed two times with PBS 0.01M pH 7.2 and incubated in a lysis solution (100 mM Tris-HCl, 150 mM NaCl, 1 mM EDTA, 1% NP40, 5 μM Trichostatin A, pH 8.8), cells were then centrifuged for 20 min at 10 000 rpm at 4° C. Deacetylase activity in the presence or absence of 200 μM NAD was measured. Results are expressed as relative F355/F460 counts=F355/F460 counts in the presence of NAD—F355/F460 counts in the absence of NAD. This allowed to discriminate between fluorescence due to the action of LmSIR2 to fluorescence due to the presence of compounds which could interfere with the test.

[4] = system: L. infantum amastigotes which overexpress LmSIR2; assay: NAm-induced death of amastigotes overexpressing LmSIR2; assay type: cell-based; details: FIGS. 3A and 3B, growth inhibition and YOPRO-1 positive cells
Procedure: To further examine the possible correlation between the level of SIR2 expression and the sensitivity/resistance to NAm-induced Leishmania amastigotes death, NAm was added to cultures of mutant L. infantum amastigotes which overexpress LmSIR2 or carrying the empty pTEX plasmid as controls.

[5] = patient treated with accelerated radiotherapy for head and Neck cancer; cited from earlier work
Leishmania parasites = details: compared with NAm

SMILES | growth of promastigotes ([1]; 20 mM NAm) | proliferation of promastigotes ([1]; FIG. 1A, 10 mM or 20 mM NAm) | capacity of axenic amastigotes to proliferate ([2]; 20 mM NAm) | proliferation of amastigotes ([2]; FIG. 1B, 10 mM or 20 mM NAm) | growth inhibitory activity on L. amazonsensis amastigotes [3] | leishmanicidal effect, YOPRO-1 positive cells (axenic amastigote; 100 mM NAm, after 3 days of culture (FIG. 1C)) | leishmanicidal activity, occurrence of YOPRO-1 positive cells (axenic amastigote; concentrations higher than 25 mM, 24, 48 and 72 hours) | inhibition at 20000 µM (THP-1 monocytes; Homo sapiens, THP-1, 72 h, 20 mM NAm, read-out: inhibition of proliferation of THP-1 monocyte) [%] | effect on cell growth and viability of THP-1 monocytes (THP-1 monocytes; up to 10 mM NAm) | inhibition of intracellular amastigote proliferation (intracellular amastigote; 2.5 mM NAm, vs control non treated cultures, p<0.05) | reduction of parasitic index (PI) (intracellular amastigote; 10 mM NAm, 3 days, THP-1 differentiated macrophages (maximal activity)) [%] | IC50 (intracellular amastigote) [µM] | effect on enzymatic (deacetylase) activity of SIRT1 (SIRT1; 5 mM) | effect on enzymatic (deacetylase) activity of SIRT1 (SIRT1; 20 mM) | NAD dependent deacetylase activity in parasites overexpressing LmSIR2 (LmSIR2) | resistance to NAm-induced death from extra copies of LmSIR2 [4] | plasmatic concentration achievable [5] [mM] | growth inhibitory activity towards Leishmania parasites (Leishmania parasites)
NC(=O)c1cccnc1 [NAm, nicotinamide] | a delay in the growth | strongly inhibited | virtually completely abrogated | strongly inhibited | sensitive | Maximal effect | strong dose-dependent leishmanicidal activity | ~45 | no effect | significantly inhibit | ~70 | < 2500 | almost completely abrogated | almost completely abrogated | significantly inhibited | did not confer significant resistance | 0.7 to 2.3 | 
O=C(O)c1cccnc1 [NicotAc, nicotinic acid] |  |  |  |  |  |  |  |  |  |  |  | < 2500 | no significant effect |  |  |  |  | exerted a growth inhibitory activity towards Leishmania parasites, although at higher concentrations
